Reference: PMC12186253, “Grafted Coiled-Coil Peptides as Multivalent Scaffolds for Protein Recognition” (ACS Chemical Biology, 2025)

How the values were obtained:
[1] = molecular target: T1, FAM-Ahx-BID/MCL-1 complex (Homo sapiens, UniProt Q07820); assay: Fluorescence anisotropy competition assay, FAM-Ahx-BID/MCL-1; type: binding
T1 construct: residues 172 – 327; His6-SUMO (N, cleaved yes); made in house; host or cells: E. coli BL21-Gold (pET28a)
Description: (1 picture or pasted object on this page, not shown here) […]

[2] = CD thermal unfolding of individual components (peptide or protein alone); type: physicochemical; conditions: CD at 222 nm, 5-85 °C, 20 °C/h; 25 μM in 20 mM phosphate, 100 mM NaCl, pH 7.4
Description: CD spectroscopy was used to investigate the secondary structures and thermal stabilities of the designed peptides alone and in the presence of MCL-1.
prepared at 200 – 500 µM in deionized water from solid peptides) were diluted into phosphate
buffer (20 mM phosphate, 100 mM NaCl, pH 7.4) to a final concentration of 25 µM for individual
components, and at a 1:1 ratio (final concentration of all components set as 50 µM for
homomeric species and 75 µM for heterodimeric complex with MCL-1, or 1:1:1 ratio) of the
number of binding sites on the coiled-coil peptides to BH3 binding domain on the protein.
Wavelength spectra were collected (average of 5 scans, from 190 – 300 nm) to evaluate
secondary structure of the individual components and the peptide:protein complexes at 20 °C.
Thermal unfolding experiments monitored the α helical minima at 222 nm from 5 – 85 °C with
a heating ramp of 20 °C/h , and Tm was calculated from the mid -point of unfolding transitions.
A background spectrum of the buffer alone was also collected and subtracted from raw sample
ellipticity values during data conversion.
Data were collected on an APP Chirascan CD spectropolarimeter using 1 mm pathlength
quartz cuvettes. Raw ellipticity data w ere converted to mean residue ellipticity (MRE) using
MRE = (([θ]λ – [θ]0) x Mw) / (n x l x c) […]
curves, the fraction folded was calculated with the following equation […]

T1 sequence (Q07820 172-327, one chain of several): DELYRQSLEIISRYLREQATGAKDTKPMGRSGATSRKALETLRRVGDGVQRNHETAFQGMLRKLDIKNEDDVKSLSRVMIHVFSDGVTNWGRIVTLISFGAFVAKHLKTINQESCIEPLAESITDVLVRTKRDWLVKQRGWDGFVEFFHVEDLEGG

| Substance | IC50 [1] [µM] | Tm (thermal unfolding midpoint), component alone [2] [°C] |
| --- | --- | --- |
| Ac-GEILAIKQEILRIIGDNVAIKQEILNIKQGYG-NH2 [CC-Tri_E1] | 68 ± 16 |  |
| Ac-GEILALKQEILRLIGDNVALKQEILNLKQGYG-NH2 [CC-Di_E1] | 0.8 ± 0.1 |  |
| Ac-GELLAIKQELLRIIGDLVAIKQELLNIKQGYG-NH2 [CC-Tet_E1] | 7.4 ± 0.8 |  |
| MCL-1: α-helix-binding antiapoptotic target protein, residues 172 – 327, expressed in E. coli |  | 62 |
